{
  "source": "patent US20260240801A1",
  "about": "“COMPOSITIONS FOR TREATING PARKINSON’S DISEASE AND QUALITATIVE ASSESSMENT THEREOF” (InTrance Medical Systems Inc., priority 2023, published 2026)",
  "key": {"[1]": {"assay": "Stability study of Compound 1 (E920) on storage: water content by Karl Fischer", "format": "physicochemical", "description": "(§1) Compound 1 purity was determined by HPLC at two wavelengths 220 nm and 280 nm. Identification of Compound 1 was carried out by IR and NMR methods (^1H NMR, ^13C NMR). The residual solvents methanol and dichloromethane (DCM) were determined by gas chromatography (GC). Residual water content was determined by Karl Fisher analysis. Thermogravimetric analysis (TGA) of Compound 1 was also carried out with hold time of 10 minutes at final temperature of 105° C.\n(§2) The stability profile of Compound 1 (Eurofins CDMO Alphora Inc. code: E920) was being evaluated over a period of 6 months under Long Term storage condition of <−20° C. and 6 months under accelerated condition of 25±2° C./60%±5% RH; and at intermediate storage conditions of 5±3° C. Additional samples are stored at each storage conditions to cover the stability studies up to 12 months, after 6 months satisfactory stability results. Attributes being tested include: description of composition, purity by HPLC, identification by HPLC and water content by Karl Fischer (KF) Method. This study is conducted in compliance with ICH Q1A (R2) and Alphora Standard Operating Procedure SOP LC027.\n(§3) The stability profile of Compound 1 (Eurofins CDMO Alphora Inc. code: E920) was being evaluated over a period of up to 12 months under Long Term storage condition of <−20° C. and up to 12 months under accelerated condition of 25±2° C./60%±5% RH; and store only at intermediate storage conditions of 5±3° C. Attributes being tested include: description of composition, purity by HPLC, identification by HPLC and water content by Karl Fischer (KF) Method. This study is conducted in compliance with ICH Q1A (R2) and Alphora Standard Operating Procedure SOP LC027."}, "[2]": {"assay": "Stability study of Compound 1 (E920) on storage: purity by HPLC", "format": "physicochemical", "description": "as §1\n• Detector: UV/Vis or Diode Array Detector • Wavelength: Signal A: 280 nm, Bandwidth: 4 nm, Reference: OFF • Signal B: 220 nm, Bandwidth: 4 nm, Reference: OFF • Column: SunFire C18 Column (150×4.6 mm, 3.5 um) • Mobile Phase A: 0.06% TFA in H2O • Mobile Phase B: 0.04% TFA in (MeOH:H2O, 80:20)\n• Autosampler Temperature: 6° C. • Column Temperature: 40° C. • Flow Rate: 1.0 mL/min • Injection Volume: 5 μL • Run Time: 30 min\n• Accurately weigh approximately 10.0 mg of test sample into a 20 mL volumetric flask. • Dilute to volume with diluent and mix well. (0.5 mg/mL).\n• Integrate all peaks≥0.05% a/a, not present in the blank solution. • ECA—Analytical Method—E920H2—for standard qualification\nas §2, §3"}},
  "data": [
    {"smiles": "C[C@@](Cc1ccc(O)c(O)c1)(N/N=C/c1cc(O)c(O)c([N+](=O)[O-])c1)C(=O)O", "note": "[Compound 1, (2s)-2-[(E)-2-[(3,4-dihydroxy-5-nitrophenyl)methylidene]hydrazin-1-yl]-3-(3,4-dihydroxyphenyl)-2-methylpropanoic acid]", "values": [
      {"measurement": "% residual water content by KF", "setting": "[1]; 25° C./60% RH, 1 M", "value": 1.63, "unit": "%"},
      {"measurement": "% residual water content by KF", "setting": "[1]; 25° C./60% RH, 1 M (12-month study)", "value": 1.63, "unit": "%"},
      {"measurement": "% residual water content by KF", "setting": "[1]; 25° C./60% RH, 3 M", "value": 2.05, "unit": "%"},
      {"measurement": "% residual water content by KF", "setting": "[1]; 25° C./60% RH, 3 M (12-month study)", "value": 2.05, "unit": "%"},
      {"measurement": "% residual water content by KF", "setting": "[1]; 25° C./60% RH, 6 M", "value": 3.55, "unit": "%"},
      {"measurement": "% residual water content by KF", "setting": "[1]; 25° C./60% RH, 12 M", "value": 4.02, "unit": "%"},
      {"measurement": "% residual water content by KF", "setting": "[1]; Initial", "value": 1.51, "unit": "%"},
      {"measurement": "% residual water content by KF", "setting": "[1]; Initial (12-month study)", "value": 1.51, "unit": "%"},
      {"measurement": "% residual water content by KF", "setting": "[1]; −20° C., 1 M", "value": 1.67, "unit": "%"},
      {"measurement": "% residual water content by KF", "setting": "[1]; −20° C., 1 M (12-month study)", "value": 1.67, "unit": "%"},
      {"measurement": "% residual water content by KF", "setting": "[1]; −20° C., 3 M", "value": 1.96, "unit": "%"},
      {"measurement": "% residual water content by KF", "setting": "[1]; −20° C., 3 M (12-month study)", "value": 1.96, "unit": "%"},
      {"measurement": "% residual water content by KF", "setting": "[1]; −20° C., 6 M", "value": 3.35, "unit": "%"},
      {"measurement": "% residual water content by KF", "setting": "[1]; −20° C., 12 M", "value": 4.08, "unit": "%"},
      {"measurement": "% Purity at 220 nm by HPLC", "setting": "[2]; 25° C./60% RH, 1 M", "value": 95.7, "unit": "%"},
      {"measurement": "% Purity at 280 nm by HPLC", "setting": "[2]; 25° C./60% RH, 1 M", "value": 96.2, "unit": "%"},
      {"measurement": "% a/a Purity at 220 nm by HPLC", "setting": "[2]; 25° C./60% RH, 1 M", "value": 95.7, "unit": "% a/a"},
      {"measurement": "% a/a Purity at 280 nm by HPLC", "setting": "[2]; 25° C./60% RH, 1 M", "value": 96.2, "unit": "% a/a"},
      {"measurement": "% Purity at 220 nm by HPLC", "setting": "[2]; 25° C./60% RH, 3 M", "value": 93.9, "unit": "%"},
      {"measurement": "% Purity at 280 nm by HPLC", "setting": "[2]; 25° C./60% RH, 3 M", "value": 94.9, "unit": "%"},
      {"measurement": "% a/a Purity at 220 nm by HPLC", "setting": "[2]; 25° C./60% RH, 3 M", "value": 93.9, "unit": "% a/a"},
      {"measurement": "% a/a Purity at 280 nm by HPLC", "setting": "[2]; 25° C./60% RH, 3 M", "value": 94.9, "unit": "% a/a"},
      {"measurement": "% a/a Purity at 220 nm by HPLC", "setting": "[2]; 25° C./60% RH, 6 M", "value": 94.8, "unit": "% a/a"},
      {"measurement": "% a/a Purity at 280 nm by HPLC", "setting": "[2]; 25° C./60% RH, 6 M", "value": 95.3, "unit": "% a/a"},
      {"measurement": "% a/a Purity at 220 nm by HPLC", "setting": "[2]; 25° C./60% RH, 12 M", "value": 93.2, "unit": "% a/a"},
      {"measurement": "% a/a Purity at 280 nm by HPLC", "setting": "[2]; 25° C./60% RH, 12 M", "value": 95.1, "unit": "% a/a"},
      {"measurement": "% Purity at 220 nm by HPLC", "setting": "[2]; Initial", "value": 95.4, "unit": "%"},
      {"measurement": "% Purity at 280 nm by HPLC", "setting": "[2]; Initial", "value": 96.1, "unit": "%"},
      {"measurement": "% a/a Purity at 220 nm by HPLC", "setting": "[2]; Initial (12-month study)", "value": 95.4, "unit": "% a/a"},
      {"measurement": "% a/a Purity at 280 nm by HPLC", "setting": "[2]; Initial (12-month study)", "value": 96.1, "unit": "% a/a"},
      {"measurement": "Three-month stability", "setting": "[2]; −20° C. and 25° C./60% RH", "value": "satisfactory"},
      {"measurement": "Twelve-month stability", "setting": "[2]; −20° C. and 25° C./60% RH", "value": "satisfactory"},
      {"measurement": "% Purity at 220 nm by HPLC", "setting": "[2]; −20° C., 1 M", "value": 95.8, "unit": "%"},
      {"measurement": "% Purity at 280 nm by HPLC", "setting": "[2]; −20° C., 1 M", "value": 96.0, "unit": "%"},
      {"measurement": "% a/a Purity at 220 nm by HPLC", "setting": "[2]; −20° C., 1 M", "value": 95.8, "unit": "% a/a"},
      {"measurement": "% a/a Purity at 280 nm by HPLC", "setting": "[2]; −20° C., 1 M", "value": 96.0, "unit": "% a/a"},
      {"measurement": "% Purity at 220 nm by HPLC", "setting": "[2]; −20° C., 3 M", "value": 94.3, "unit": "%"},
      {"measurement": "% Purity at 280 nm by HPLC", "setting": "[2]; −20° C., 3 M", "value": 95.2, "unit": "%"},
      {"measurement": "% a/a Purity at 220 nm by HPLC", "setting": "[2]; −20° C., 3 M", "value": 94.3, "unit": "% a/a"},
      {"measurement": "% a/a Purity at 280 nm by HPLC", "setting": "[2]; −20° C., 3 M", "value": 95.2, "unit": "% a/a"},
      {"measurement": "% a/a Purity at 220 nm by HPLC", "setting": "[2]; −20° C., 6 M", "value": 96.5, "unit": "% a/a"},
      {"measurement": "% a/a Purity at 280 nm by HPLC", "setting": "[2]; −20° C., 6 M", "value": 96.1, "unit": "% a/a"},
      {"measurement": "% a/a Purity at 220 nm by HPLC", "setting": "[2]; −20° C., 12 M", "value": 95.9, "unit": "% a/a"},
      {"measurement": "% a/a Purity at 280 nm by HPLC", "setting": "[2]; −20° C., 12 M", "value": 96.6, "unit": "% a/a"}
    ]}
  ]
}
